Data published in US20240408093A1, “HETEROBIFUNCTIONAL COMPOUNDS AND THEIR USE IN TREATING DISEASE” (HALDA THERAPEUTICS OPCO, INC., priority 2022, published 2024).
Values belong to the molecule of their own block, whether it stands above or below them.

Legend:
BTK = molecular target: T1, BTK (Homo sapiens, UniProt Q06187); assay: Release of effector protein ligand from heterobifunctional compounds, BTK; assay type: biochemical; settings: detected A1-3
T1 construct: BTK (amino acids 387-659)
Protocol: (§1) Exemplary heterobifunctional compounds were evaluated for the ability to release an effector protein ligand in the presence of KRAS G12C, BTK, or EGFR T790M L858R target proteins.
(§2) Samples for mass spectrometry for KRAS G12C, BTK, and EGFR T790M L858R were prepared as described above for the intact mass spectrometry target engagement experiment, respectively, except rather than flash-freezing, 20 μL of sample was quenched with 50 μL of 100% acetonitrile. As well, a buffer-only control was used to detect latent release of effector protein ligand analyte. Internal standard (IS) solution consisted of 200 ng/mL propranolol and 50 ng/mL diclofenac in methanol:water 1:1 (v/v). A 4-point calibration curve (calibration standard (CS)) consisting of each analyte was made at final concentrations of 3 nM, 30 nM, 300 nM, and 3000 nM. Unknown samples were diluted such that the unknown analyte concentration was in the linear range of the calibration curve.
(§3) Samples for all proteins were prepared and analyzed from the following:
(§4) Samples were further analyzed with AB Sciex Triple Quad 5500 system coupled with Shimadzu Prominence HPLC.

[1] = molecular target: T2, BTK (amino acids 387-659) (Homo sapiens, UniProt Q06187); assay: Intact mass spec target engagement, BTK; assay type: binding; settings: 24 hours post-reaction; 2 μM BTK, 20 μM compound
T2 construct: BTK (amino acids 387-659)
Protocol: (§5) Exemplary heterobifunctional compounds were evaluated for intact mass spectrometry target engagement against KRAS G12C, BTK, or EGFR T790M L858R (amino acids 669-1011; Accession Number NP_005219.2), separately.
(§6) BTK: Samples were prepared using 2 μM of BTK (amino acids 387-659) and 20 μM of heterobifunctional compound in a buffer containing 20 mM HEPES pH 7.5, 150 mM NaCl, 1 mM TCEP. Protein was incubated with heterobifunctional compound at RT or 37° C. for the given amounts of time then flash-frozen and stored at −80° C. until analysis. Samples were transferred to HPLC vials and injected into Dionex UltiMate 3000 FLM HPLC system with a proprietary column (2.1×50 mm, 5 μm, 1000 Å) at 0.3 mL/minute in a column compartment at 50° C. and run on a Q Exactive Hybrid Quadrupole-Orbitrap Mass Spectrometer. Ion Max source with HESI-II probe were used, with a source voltage of 3.5 kV.
(§7) Results showing ability of exemplary heterobifunctional compounds to generate a modified target protein via intact mass spectrometry are shown in Table 13 below. The amount of different components identified by mass spectrometry at 24 hours post-reaction are listed in Table 14, wherein the different components include: • Un-modified Protein—this is starting protein material (e.g., KRAS G12C, BTK, or EGFR T790M L858R) that remained unchanged in the experiment. • Elimination-Conjugate Product—this is a conjugate formed by reaction of protein with the heterobifunctional compound to form a protein conjugate of the following general formula: […]
(§8) Exemplary Other Material can include, for example, residual impurities in the protein starting material used to conduct the experiment.

HeLa cells = assay: Cellular growth inhibition assay, HeLa cells (Example 15); assay type: cell-based; settings: Homo sapiens, 72 h, three days, CellTiter-Glo 2.0
Protocol: (§9) HEK293 and HeLa cells were cultured in DMEM medium supplemented with 10% fetal bovine serum and 1% Penn/Strep. Cells were seeded in white 384-well plates at 500 cells/well in 25 μL complete medium. Following seeding, plates were spun at 300×g for three minutes and cultured at 37° C. with 5% CO2 in a humidified tissue culture incubator.
(§10) After 24 hours, compounds were titrated in 100% DMSO and diluted in complete cell culture medium. A 25 μL aliquot of compound/media mixture was added to cells to bring total volume in the wells to 50 μL. DMSO alone was used as a negative control. Plates were then spun at 300×g for three minutes and stored at 37° C. with 5% CO2 for three days.
(§11) On Day 0 and Day 3 of compound treatment, cell viability was quantified with CellTiter-Glo 2.0 reagent (Promega). After equilibrating microplates at room temperature for 30 minutes, 25 μL CellTiter-Glo 2.0 reagent was dispensed into each well to bring total volume to 75 μL. Plates were mixed on a shaker for 2 minutes at 500 rpm, followed by a 10-minute incubation at room temperature. Following a quick spin, luminescence readings were measured with an EnVision Plate Reader. Data was normalized to DMSO treated Day 0 and Day 3 readings. […]

HEK293 cells = assay: Cellular growth inhibition assay, HEK293 cells (Example 15); assay type: cell-based; settings: Homo sapiens, 72 h, three days, CellTiter-Glo 2.0
Protocol: as §9, §10, §11

KRAS G12C = molecular target: T3, KRAS G12C (Homo sapiens, UniProt P01116, C118S/C51S/C80L/G12C); assay: Release of effector protein ligand from heterobifunctional compounds, KRAS G12C; assay type: biochemical; settings: detected A1-3
T3 construct: KRAS G12C C51S C80L C118S (amino acids 1-169)
Protocol: as §1, §2, §3, §4

[2] = molecular target: T4, KRAS G12C C51S C80L C118S (amino acids 1-169) (Homo sapiens, UniProt P01116, C118S/C51S/C80L/G12C); assay: Intact mass spec target engagement, KRAS G12C; assay type: binding; settings: 24 hours post-reaction; 5 μM KRAS G12C, 50 μM compound
T4 construct: KRAS G12C C51S C80L C118S (amino acids 1-169)
Protocol: as §5
as §6, with “KRAS G12C: Samples” for “BTK: Samples”, “using 5” for “using 2”, “of KRAS G12C C51S C80L C118S” for “of BTK”, “acids 1-169)” for “acids 387-659)”, “and 50” for “and 20”, “NaCl, and” for “NaCl,”
as §7, §8

[3] = molecular target: T5, full-length BTK (amino acids 1-659) (Homo sapiens, UniProt Q06187); assay: KdELECT binding assay, BTK
T5 construct: full-length BTK (amino acids 1-659); host or cells: mammalian cells (HEK-293)
Protocol: Exemplary compounds were tested for ability to bind to full-length BTK (amino acids 1-659; Accession Number NP_000052.1) expressed from mammalian cells. Compounds were tested using the KdELECT assay.
Kinase-tagged T7 phage strains were prepared in an E. coli host derived from the BL21 strain. E. coli were grown to log-phase and infected with T7 phage and incubated with shaking at 32° C. until lysis. The lysates were centrifuged and filtered to remove cell debris. The remaining kinases were produced in HEK-293 cells and subsequently tagged with DNA for qPCR detection. Streptavidin-coated magnetic beads were treated with biotinylated small molecule ligands for 30 minutes at room temperature to generate affinity resins for kinase assays. The liganded beads were blocked with excess biotin and washed with blocking buffer (SeaBlock (Pierce), 1% BSA, 0.05% Tween 20, 1 mM DTT) to remove unbound ligand and to reduce non-specific binding. Binding reactions were assembled by combining kinases, liganded affinity beads, and test compounds in 1× binding buffer (20% SeaBlock, 0.17× PBS, 0.05% Tween 20, 6 mM DTT). Test compounds were prepared as 111× stocks in 100% DMSO. Kd values were determined using an 11-point 3-fold compound dilution series with three DMSO control points. All compounds for Kd measurements are distributed by acoustic transfer (non-contact dispensing) in 100% DMSO. The compounds were then diluted directly into the assays such that the final concentration of DMSO was 0.9%. All reactions performed in polypropylene 384-well plate. Each was a final volume of 0.02 mL. The assay plates were incubated at room temperature with shaking for 1 hour and the affinity beads were washed with wash buffer (1× PBS, 0.05% Tween 20). The beads were then re-suspended in elution buffer (1× PBS, 0.05% Tween 20, 0.5 μM nonbiotinylated affinity ligand) and incubated at room temperature with shaking for 30 minutes. The kinase concentration in the eluates was measured by qPCR.

[4] = tested on: HEK293 cells (ATCC CRL-1573); assay: Cellular growth inhibition assay, HEK293 cells (Example 16); assay type: cell-based; settings: Homo sapiens, 72 hours, CellTiter-Glo 2.0
HeLa cells (ATCC CCL-2) = assay: Cellular growth inhibition assay, HeLa cells (Example 16); assay type: cell-based; settings: Homo sapiens, 72 hours, CellTiter-Glo 2.0
GSPT1 = molecular target: T6, GSPT1 (Homo sapiens, UniProt P15170+Q96SW2); assay: GSPT1 HiBiT degradation assay; assay type: cell-based; settings: HEK293 LgBiT GSPT1 HiBiT cells, 6 hours
T6 construct: host or cells: HEK293 LgBiT / GSPT1 HiBiT CRISPR knock-in
In short: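 HEK293 CRISPR knock-in cells expressing LgBiT and GSPT1-HiBiT were seeded at 1000 cells/well and, after 18-24 h, treated with titrated compound plus endurazine (0.5× final) at 37 °C. Luminescence read after 6 h; loss of signal reflects GSPT1 degradation, giving DC50.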

T1 sequence (Q06187 387-659): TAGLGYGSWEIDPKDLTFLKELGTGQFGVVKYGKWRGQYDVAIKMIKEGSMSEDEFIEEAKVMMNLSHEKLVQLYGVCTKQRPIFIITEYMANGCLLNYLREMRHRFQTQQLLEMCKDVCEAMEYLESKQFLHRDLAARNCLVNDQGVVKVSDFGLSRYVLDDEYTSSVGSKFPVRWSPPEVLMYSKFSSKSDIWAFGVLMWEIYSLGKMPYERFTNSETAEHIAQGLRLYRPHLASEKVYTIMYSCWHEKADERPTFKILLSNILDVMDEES
T2 sequence (Q06187 387-659): as above
T5 sequence (Q06187 whole entry, the tested form may be a part): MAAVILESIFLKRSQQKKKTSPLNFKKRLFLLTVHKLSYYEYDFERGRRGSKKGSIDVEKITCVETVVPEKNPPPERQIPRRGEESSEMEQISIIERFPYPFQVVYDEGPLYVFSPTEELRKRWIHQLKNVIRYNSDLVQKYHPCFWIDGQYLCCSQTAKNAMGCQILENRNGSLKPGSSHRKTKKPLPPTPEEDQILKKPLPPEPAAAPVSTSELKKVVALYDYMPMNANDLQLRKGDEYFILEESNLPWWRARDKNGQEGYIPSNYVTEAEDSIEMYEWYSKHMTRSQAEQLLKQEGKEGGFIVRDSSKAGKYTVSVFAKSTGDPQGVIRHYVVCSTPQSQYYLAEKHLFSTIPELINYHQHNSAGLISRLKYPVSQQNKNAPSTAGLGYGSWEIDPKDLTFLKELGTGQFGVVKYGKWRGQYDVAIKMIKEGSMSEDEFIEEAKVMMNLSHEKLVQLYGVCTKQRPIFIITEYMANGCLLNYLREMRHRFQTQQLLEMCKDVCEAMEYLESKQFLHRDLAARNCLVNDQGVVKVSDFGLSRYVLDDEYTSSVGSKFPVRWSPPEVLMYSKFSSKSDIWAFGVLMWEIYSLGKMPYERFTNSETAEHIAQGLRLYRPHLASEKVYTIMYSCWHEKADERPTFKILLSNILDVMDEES
T6 sequence (P15170 whole entry): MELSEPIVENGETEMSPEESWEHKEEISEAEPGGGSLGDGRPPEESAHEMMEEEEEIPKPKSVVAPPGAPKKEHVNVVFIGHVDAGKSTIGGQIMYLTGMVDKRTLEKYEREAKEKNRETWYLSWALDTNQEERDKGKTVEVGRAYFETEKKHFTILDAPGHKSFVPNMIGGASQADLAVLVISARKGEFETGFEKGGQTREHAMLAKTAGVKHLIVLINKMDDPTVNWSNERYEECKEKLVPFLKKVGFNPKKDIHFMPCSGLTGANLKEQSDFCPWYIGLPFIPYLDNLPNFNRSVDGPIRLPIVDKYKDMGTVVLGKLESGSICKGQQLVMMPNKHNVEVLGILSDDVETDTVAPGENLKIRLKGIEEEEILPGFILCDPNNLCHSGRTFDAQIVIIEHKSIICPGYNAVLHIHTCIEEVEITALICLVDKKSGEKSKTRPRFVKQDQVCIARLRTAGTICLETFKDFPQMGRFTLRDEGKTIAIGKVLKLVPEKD
T6 sequence (Q96SW2 whole entry): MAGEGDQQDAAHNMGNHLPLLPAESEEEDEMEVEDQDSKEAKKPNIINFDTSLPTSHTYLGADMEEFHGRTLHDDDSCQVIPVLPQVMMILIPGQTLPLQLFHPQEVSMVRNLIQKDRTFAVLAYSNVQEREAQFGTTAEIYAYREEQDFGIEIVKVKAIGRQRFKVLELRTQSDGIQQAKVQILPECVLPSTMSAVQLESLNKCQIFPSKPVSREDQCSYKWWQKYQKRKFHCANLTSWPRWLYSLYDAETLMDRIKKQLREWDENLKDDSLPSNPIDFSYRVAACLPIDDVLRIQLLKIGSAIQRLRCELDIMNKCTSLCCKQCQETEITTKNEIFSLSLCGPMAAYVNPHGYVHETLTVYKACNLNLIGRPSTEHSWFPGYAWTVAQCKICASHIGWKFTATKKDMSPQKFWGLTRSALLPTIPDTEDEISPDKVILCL
T6 sequence (Q16531 whole entry partner): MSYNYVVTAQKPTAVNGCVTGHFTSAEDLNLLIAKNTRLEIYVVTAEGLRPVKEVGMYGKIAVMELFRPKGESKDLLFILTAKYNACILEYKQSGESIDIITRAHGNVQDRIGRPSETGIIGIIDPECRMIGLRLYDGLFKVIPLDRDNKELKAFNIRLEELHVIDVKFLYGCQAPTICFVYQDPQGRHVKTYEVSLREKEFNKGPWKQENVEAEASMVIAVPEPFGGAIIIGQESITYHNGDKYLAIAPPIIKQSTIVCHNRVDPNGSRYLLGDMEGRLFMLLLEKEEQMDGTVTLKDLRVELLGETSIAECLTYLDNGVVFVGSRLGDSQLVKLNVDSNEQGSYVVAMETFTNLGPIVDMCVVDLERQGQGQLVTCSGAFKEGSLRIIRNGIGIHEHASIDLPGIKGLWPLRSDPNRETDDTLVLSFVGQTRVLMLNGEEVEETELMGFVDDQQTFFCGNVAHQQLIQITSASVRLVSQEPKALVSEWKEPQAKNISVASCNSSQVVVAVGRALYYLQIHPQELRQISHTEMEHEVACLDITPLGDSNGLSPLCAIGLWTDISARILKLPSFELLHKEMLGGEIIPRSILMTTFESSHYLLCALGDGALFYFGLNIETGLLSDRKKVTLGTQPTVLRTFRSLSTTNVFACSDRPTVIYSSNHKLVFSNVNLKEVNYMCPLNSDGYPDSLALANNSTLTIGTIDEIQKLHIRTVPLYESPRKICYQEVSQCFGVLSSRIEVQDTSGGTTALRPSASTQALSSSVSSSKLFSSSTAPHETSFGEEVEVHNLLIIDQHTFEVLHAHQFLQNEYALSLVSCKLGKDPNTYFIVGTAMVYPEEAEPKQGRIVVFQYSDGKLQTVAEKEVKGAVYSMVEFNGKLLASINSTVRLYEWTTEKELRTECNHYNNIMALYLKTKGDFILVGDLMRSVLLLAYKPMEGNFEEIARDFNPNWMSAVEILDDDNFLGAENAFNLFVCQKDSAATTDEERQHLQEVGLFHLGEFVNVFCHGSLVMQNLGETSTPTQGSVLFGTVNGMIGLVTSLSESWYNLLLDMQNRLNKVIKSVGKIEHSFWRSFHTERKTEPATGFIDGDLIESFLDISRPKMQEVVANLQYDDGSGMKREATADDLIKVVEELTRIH

- Concentration of Effector Protein Ligand (BTK; Matrix Buffer + Protein (BTK), Time 0 h): 17.8 nM
- Concentration of Effector Protein Ligand (BTK; Matrix Buffer + Protein (BTK), Time 1 h): 281 nM
- Concentration of Effector Protein Ligand (BTK; Matrix Buffer + Protein (BTK), Time 4 h): 506 nM
- Concentration of Effector Protein Ligand (BTK; Matrix Buffer + Protein (BTK), Time 22 h): 460 nM
- Concentration of Effector Protein Ligand (BTK; Matrix Buffer, Time 0 h): 4.16 nM
- Concentration of Effector Protein Ligand (BTK; Matrix Buffer, Time 1 h): 4 nM
- Concentration of Effector Protein Ligand (BTK; Matrix Buffer, Time 4 h): 4.49 nM
- Concentration of Effector Protein Ligand (BTK; Matrix Buffer, Time 22 h): 10.4 nM
- Percent Other Material [1]: 0%
- Percent of Addition-Conjugate Product [1]: 24%
- Percent of Elimination-Conjugate Product [1]: 72%
- Percent of Un-modified Protein [1]: 4%
Compound: C=C(Cn1cc(CNc2cc(N3CCCC[C@H]3CCO)nc3c(CC)cnn23)ccc1=O)C(=O)N1CCC[C@@H](n2nc(-c3ccc(Oc4ccccc4)cc3)c3c(N)ncnc32)C1 [Compound A1-4]

- GI50 (HeLa cells): > 10 µM
Compound: C=C(CN(C(=O)NCc1ccc2c(c1)CN(C1CCC(=O)NC1=O)C2=O)c1ccc(C)c(Cl)c1)C(=O)N1CCC[C@@H](n2nc(-c3ccc(Oc4ccccc4)cc3)c3c(N)ncnc32)C1 (stereo partly drawn) [Compound I-4]
- GI50 (HEK293 cells): 1.5 to 10 µM

- Concentration of Effector Protein Ligand (KRAS G12C; Matrix Buffer + Protein (KRAS G12C), Time 0 h): 328 nM
- Concentration of Effector Protein Ligand (KRAS G12C; Matrix Buffer + Protein (KRAS G12C), Time 2 h): 556 nM
- Concentration of Effector Protein Ligand (KRAS G12C; Matrix Buffer + Protein (KRAS G12C), Time 8 h): 1170 nM
- Concentration of Effector Protein Ligand (KRAS G12C; Matrix Buffer + Protein (KRAS G12C), Time 24 h): 2020 nM
- Concentration of Effector Protein Ligand (KRAS G12C; Matrix Buffer, Time 0 h): 55.8 nM
- Concentration of Effector Protein Ligand (KRAS G12C; Matrix Buffer, Time 2 h): 85.3 nM
- Concentration of Effector Protein Ligand (KRAS G12C; Matrix Buffer, Time 8 h): 166 nM
- Concentration of Effector Protein Ligand (KRAS G12C; Matrix Buffer, Time 24 h): 406 nM
- Percent Other Material [2]: 10%
- Percent of Addition-Conjugate Product [2]: 5%
- Percent of Elimination-Conjugate Product [2]: 83%
- Percent of Un-modified Protein [2]: 2%
Compound: C=C(Cn1cc(CNc2cc(N3CCCC[C@H]3CCO)nc3c(CC)cnn23)ccc1=O)C(=O)N1CCN(c2nc(OC[C@@H]3CCCN3C)nc3c2CCN(c2cccc4cccc(Cl)c24)C3)C[C@@H]1CC#N [Compound A1-2]

- Kd [3]: 500 to 2500 nM
- GI50 (HeLa cells (ATCC CCL-2)): > 10 µM
- DC50 (GSPT1): > 2500 nM
Compound: C=C(CN(Cc1ccc2c(c1)CN(C1CCC(=O)NC1=O)C2=O)C(=O)Nc1ccc(C)c(Cl)c1)C(=O)N1CCC[C@@H](n2nc(-c3ccc(Oc4ccccc4)cc3)c3c(N)ncnc32)C1 (stereo partly drawn) [Compound I-31]
- GI50 [4]: > 10 µM
